Patent publication US8198085B2, “Somatic cells for use in cell therapy” (Core Dynamics Limited, priority 2005, dated 2012)
Several values for one entry are separate records, joined by “and”; a condition that tells them apart may be missing. Equal values may be shown once.

Key:
macrophages = test: Membrane integrity (SYBR14/PI) of macrophage units after freeze thawing and freeze drying; format: cell-based; details: for cell survival (membrane integrity): freeze-dried, 0.5M Trehalose
From the text: Macrophage units were supplied by Professor Danon, Israel blood services, Tel-Hashomer, Israel. In the following experiments all buffy coats and/or macrophage units referred to were manipulated using the method and system for cultivating macrophages described in U.S. Pat. No. 6,146,890 which is incorporated herein by reference in its entirety, whereby hypo-osmotic shock is used to enhance the cells' differentiation into macrophages. Such manipulated cells were reported not to maintain viability after a conventional freezing process therefore their shelf life is very short, limiting their applications.
A part of the buffy coat was separated in order to produce mononuclear cells which include the monocyte/macrophage layer. The blood was separated on a Ficoll-Paque gradient for 30 minutes at 1000 g, afterwards the mononuclear layer was drawn out and washed twice in Phosphate Buffered Saline (PBS) (Calcium and Magnesium free, Bet Haemek, Israel) for 10 minutes at 200 g. The pellet was then resuspended with 3 ml of culture medium (RPMI 1640 with glutamine, 10% fetal calf serum and 1% antibiotic, all supplied by Bet Haemek, Israel). The rest of the buffy coat was left untouched.
Whole buffy coat or mononuclear cells in culture medium were incubated for one hour with different concentrations of Trehalose (0.1, 0.3, 0.5 and 1M). Incubation was done at 37° C., 5% CO2 humidified incubator.
Buffy coat samples and MNC samples were frozen by using the MTG-516 freezing apparatus (IMT, Israel) at a cooling rate of 5.1° C./min. Samples were rotated during freezing at 56 rounds per minute. After freezing, all samples were plunged into liquid nitrogen. Thawing was done at 37° C. in a water bath. Lyophilization was done by putting the frozen samples in a commercial lyophilizer (Labconco, USA) with a condenser temperature of −80° C. After drying, the cells were rehydrated with ultra pure water at 37° C. in order to regain their original volume (2.5 ml). […]

[1] = test system: mononuclear cells (MNC) derived from umbilical cord blood (UCB); test: Membrane integrity (SYBR14/PI live/dead stain) of UCB derived MNC after freeze thawing or freeze drying; format: cell-based, human; details: for Membrane integrity (%): 0.1M trehalose in PBS
Procedure: In the following experiments umbilical cord blood (UCB) was received from “Sheba” Medical Center. The blood was separated on ficoll-paque gradient. 3 ml of Histopaque 1077 was put in a 15 ml plastic test tube. Above it 3 ml of UCB was put and the samples were centrifuged for 30 minutes at 1000 g. After spinning was finished the mononuclear layer was taken out and PBS was added up to 10 ml total volume. The samples were centrifuged again for 10 minutes at 200 g or 250 g., after which, the supernatant was discarded and another step of washing was performed (again, 10 ml PBS was added and samples were centrifuged for 10 minutes at 250 g). At the end of this step a freezing solution (as detailed in each experiment) was added to the cells pellet. The volume of the freezing solution varied depending on the desired cell concentration (concentrations may range for example from 1 to 10×10^6 cells/ml) or volume. Unless otherwise mentioned, a 2.5 ml cell suspension was transferred into a 16 mm glass tube that was then frozen using a multi-gradient directional freezing system (MTG-516 by IMT, Israel), operated essentially as described in WO03/020874.
Unless otherwise stated, the directional freezing system temperatures were set to: 5° C. to −10° C. to −40° C. to −70° C. Seeding was performed before the samples entered the −10° C. temperature. The velocity at which the samples were pushed through the channels of the freezing machine was set to 0.2 mm/sec, resulting in a cooling rate of 5.1° C./min. During freezing the samples were rotated at 60 rounds per minute (RPM). After completion of the freezing process, samples were put in a liquid-nitrogen (LN) tank until they were either thawed or transferred into a lyophilizer.
Lyophilization was performed by taking samples out of the LN tank and putting them in a commercial lyophilizer near the condenser (Labconco, USA), at condenser temperature of −80° C. Samples were held in the lyophilizer for 3 days. After 3 days of lyophilization samples were taken out and rehydrated with 2.4 ml of double distilled water (DDW) at 37° C.
Viability was assessed using the live/dead fluorescent stain SYBR14/PI (Propidium Iodide) or SYTO/PI (both from Molecular Probes, USA) for membrane integrity. These stains are nucleic acid stains, SYBR14 and SYTO are membrane permeable molecules and PI can enter the cell only if the membrane is damaged. Where so specified, the assay used was trypan blue (TB).

[2] = test system: UCB derived MNC (mature lymphocytes, CD3); test: CD3 expression by FACS after lyophilization and re-hydration; format: cell-based, human; details: 0.1M trehalose
Procedure: Sample's volume was 2.5 ml and samples were frozen and then lyophilized as described above. After being in the lyophilizer for 72 h, the samples were taken out and re-hydrated with 2.4 ml of DDW at 37° C. After re-hydration samples were assayed for CD3 using FACS (fluorescent-activated cell sorter) in accordance with the method described in Hulling et al. The Journal of Immunology 2003, 171: 4824-4829.

UCB derived MNC = test: Cell proliferation assay based on thymidine incorporation; parameters: species or system human; details: cells lyophilized at ×10 EGCG (1.89 mg/ml) compared with ×2.5 EGCG (0.47 mg/ml); 48 hour incubation; FIG. 3
Procedure: Sample's volume was 2.5 ml and samples were frozen and then lyophilized as described above. After being in the lyophilizer for 72 h, the samples were taken out and re-hydrated with 2.4 ml of DDW at 37° C. After re-hydration samples were assayed for CD3 using FACS (fluorescent-activated cell sorter) in accordance with the method described in Hulling et al. The Journal of Immunology 2003, 171: 4824-4829. In addition, a cell proliferation assay was performed. In brief, the hydrated cells were incubated for 48 hour after which a proliferation assay based on thymidine incorporation was carried out (Promega, USA). The results of the proliferation assay are depicted in FIG. 3, wherein the proliferation index of the cells is depicted as a function of their number at initial plating.

OC[C@H]1O[C@H](O[C@H]2O[C@H](CO)[C@@H](O)[C@H](O)[C@H]2O)[C@H](O)[C@@H](O)[C@@H]1O [trehalose, Trehalose]
cell survival (membrane integrity) (macrophages; second experiment, FIG. 6C): 55.35±2.9% | cell survival (membrane integrity) (macrophages; without Ficoll-Paque separation, FIG. 6B): 91.86±4.2% | membrane integrity (macrophages; frozen-thawed with 0.5M trehalose, whole macrophage units, FIG. 6C): 72.03±2.8%

O=C(O[C@@H]1Cc2c(O)cc(O)cc2O[C@@H]1c1cc(O)c(O)c(O)c1)c1cc(O)c(O)c(O)c1 [EGCG, Epigallocatechin gallate]
membrane integrity ([1]; 0.1M trehalose with 0.945 or 1.89 mg/ml EGCG, lyophilized and rehydrated, FIG. 2B): very high | viability (EGCG dose response) ([1]; 0.4M Trehalose, 0.189, 0.47, 0.945 and 1.89 mg/ml EGCG, after freezing and thawing and after freeze drying and re-hydration (exception 0.945 mg/ml after freeze-drying)): increased with increasing EGCG concentration | Membrane integrity (%) ([1]; Fresh with 0.47 mg/ml EGCG): 97.36 ± 2.2% | Membrane integrity (%) ([1]; Lyophilized with 0.47 mg/ml EGCG, re-hydrated): 55.1 ± 8.5% and 59.8 ± 1.4% | percentage of cells that presented an intact membrane ([1]; after freeze drying with 1.89 mg/ml EGCG, 0.4M Trehalose in PBS, FIG. 2A): about 90% | CD3 (%) ([2]; Lyophilized with 0.47 mg/ml EGCG): 80% | CD3 (%) ([2]; Lyophilized with 1.89 mg/ml EGCG): 81% and 83% and 82% and 78% | proliferation index (UCB derived MNC): higher proliferation index
